In US7098337B2, “1,2,3,4,9,9a-hexahydro-2,4a,5-triaza-fluorene and 1,2,3,4-tetrahydro-2,4a,5-triaza-fluorene derivatives” (priority 2002, dated 2006):

Experiments:
human 5-HT2B receptors = molecular target: T1, human 5-HT2B receptors (Homo sapiens, UniProt P41595); assay: Binding to the 5-HT2B receptor, [3H]-5-HT, CHO cell line (Method (b)); settings: human 5-HT2B in CHO cell line, read-out: Ki (2B)
T1 construct: expressed in transfected cells; host or cells: CHO cell line
Procedure: (§1) The binding of compounds of formula (I) to serotonin receptors was determined in vitro by standard methods. The activity of the test compounds was investigated in accordance with the assays given below.
Method (b): For the binding to the 5-HT2B receptor, the 5-HT2B receptors were radiolabeled with [^3H]-5-HT. The affinity of the compounds for human 5-HT2B receptors in a CHO cell line was determined according to the procedure of K. Schmuck, C. Ullmer, P. Engels and H. Lubbert, FEBS Lett., 1994, 342, 85–90.

5-HT2C receptor [1] = molecular target: T2, 5-HT2C receptor (Homo sapiens, UniProt P28335); assay: Functional activity, FLIPR calcium assay, CHO cells expressing human 5-HT2C; type: cell-based; parameters: expressed in transfected cells; host or cells: CHO cells; settings: for h5-HT2C Rel. Eff.: relative efficacy vs response to 10 μM 5-HT (defined as 100%)
Procedure: (§2) The functional activity of compounds of formula (I) was assayed using a Fluorimetric Imaging Plate reader (FLIPR). CHO cells expressing the human 5-HT2C or human 5-HT2A receptors were counted and plated into standard 96 well microtitre plates on the day before testing to give a confluent monolayer. The cells were then dye loaded with the calcium sensitive dye, Fluo-3-AM. Unincorporated dye was removed using an automated cell washer to leave a total volume of 100 μL/well of assay buffer (Hanks balanced salt solution containing 20 mM Hepes and 2.5 mM probenecid). The drug (dissolved in 50 μL of the assay buffer) was added at a rate of 70 μL/sec to each well of the FLIPR 96 well plate during fluorescence measurements. The measurements were taken at 1 sec intervals and the maximum fluorescent signal was measured (approx 10–15 secs after drug addition) and compared with the response produced by 10 μM 5-HT (defined as 100%) to which it was expressed as a percentage response (relative efficacy). Dose response curves were constructed using Graphpad Prism (Graph Software Inc.).

5-HT2A receptor [2] = molecular target: T3, 5-HT2A receptor (Homo sapiens, UniProt P28223); assay: Functional activity, FLIPR calcium assay, CHO cells expressing human 5-HT2A; type: cell-based; parameters: expressed in transfected cells; host or cells: CHO cells; settings: for EC50: FLIPR, CHO cells expressing human 5-HT2A, read-out: h5-HT2A EC50; for h5-HT2A Rel. Eff.: relative efficacy vs response to 10 μM 5-HT (defined as 100%)
Procedure: as §2

5-HT2C receptor [3] = molecular target: T2, 5-HT2C receptor; assay: Binding to the 5-HT2C receptor, [3H]-5-HT, CHO cell line (Method (a)); parameters: expressed in transfected cells; host or cells: CHO cell line
Procedure: as §1
Method (a): For the binding to the 5-HT2C receptor, the 5-HT2C receptors were radiolabeled with [^3H]-5-HT. The affinity of the compounds for 5-HT2C receptors in a CHO cell line was determined according to the procedure of D. Hoyer, G. Engel and H. O. Kalkman, European J. Pharmacol., 1985, 118, 13–23.

5-HT2A receptor [4] = molecular target: T3, 5-HT2A receptor; assay: Binding to the 5-HT2A receptor, [125I]-DOI, CHO cell line (Method (c)); parameters: expressed in transfected cells; host or cells: CHO cell line; settings: read-out: Ki (2A)
Procedure: as §1
Method (c): For the binding to the 5-HT2A receptor, the 5-HT2A receptors were radiolabeled with [^125I]-DOI. The affinity of the compounds for 5-HT2A receptors in a CHO cell line was determined according to the procedure of D. J. McKenna and S. J. Peroutka, J. Neurosci., 1989, 9, 3482–90.

T2 sequence (P28335 33-458): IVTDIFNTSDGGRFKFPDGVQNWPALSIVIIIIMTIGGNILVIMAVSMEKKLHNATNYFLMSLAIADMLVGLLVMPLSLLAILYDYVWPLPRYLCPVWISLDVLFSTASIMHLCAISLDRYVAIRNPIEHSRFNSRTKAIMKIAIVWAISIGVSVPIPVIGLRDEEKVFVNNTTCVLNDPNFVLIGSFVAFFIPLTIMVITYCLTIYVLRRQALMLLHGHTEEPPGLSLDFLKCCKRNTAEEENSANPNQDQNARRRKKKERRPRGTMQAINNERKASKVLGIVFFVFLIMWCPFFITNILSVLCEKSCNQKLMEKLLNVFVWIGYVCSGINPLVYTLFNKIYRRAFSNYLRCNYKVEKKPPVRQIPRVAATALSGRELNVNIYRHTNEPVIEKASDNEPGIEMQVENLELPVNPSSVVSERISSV
T3 sequence (P28223 whole entry): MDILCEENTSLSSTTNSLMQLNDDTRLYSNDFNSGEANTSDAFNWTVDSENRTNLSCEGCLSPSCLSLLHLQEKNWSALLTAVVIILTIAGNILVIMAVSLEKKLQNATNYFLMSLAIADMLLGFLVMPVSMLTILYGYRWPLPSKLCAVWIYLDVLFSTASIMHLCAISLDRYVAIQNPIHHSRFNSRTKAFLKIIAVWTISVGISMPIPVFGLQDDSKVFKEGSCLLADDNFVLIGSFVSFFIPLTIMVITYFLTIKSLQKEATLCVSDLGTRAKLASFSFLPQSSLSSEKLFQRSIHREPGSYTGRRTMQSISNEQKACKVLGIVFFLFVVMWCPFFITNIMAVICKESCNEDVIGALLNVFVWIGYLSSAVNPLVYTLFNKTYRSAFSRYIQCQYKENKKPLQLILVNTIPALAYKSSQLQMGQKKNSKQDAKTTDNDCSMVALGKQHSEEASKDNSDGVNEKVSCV
T1 sequence (P41595 whole entry): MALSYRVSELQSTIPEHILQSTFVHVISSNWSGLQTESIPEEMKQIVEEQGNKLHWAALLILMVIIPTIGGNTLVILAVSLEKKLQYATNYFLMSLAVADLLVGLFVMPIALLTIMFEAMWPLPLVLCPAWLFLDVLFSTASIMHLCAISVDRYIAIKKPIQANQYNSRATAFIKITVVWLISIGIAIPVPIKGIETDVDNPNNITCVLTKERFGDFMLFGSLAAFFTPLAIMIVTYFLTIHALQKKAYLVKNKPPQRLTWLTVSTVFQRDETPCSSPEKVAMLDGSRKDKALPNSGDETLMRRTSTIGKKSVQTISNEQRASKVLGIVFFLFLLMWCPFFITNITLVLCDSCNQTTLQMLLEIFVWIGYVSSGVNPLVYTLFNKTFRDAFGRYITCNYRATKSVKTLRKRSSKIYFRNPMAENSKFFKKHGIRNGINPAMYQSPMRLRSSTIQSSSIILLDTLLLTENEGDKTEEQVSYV

Cc1c2n(c3nc(Cl)ccc13)[C@H](C)CNC2 [Example 20, (R)-6-Chloro-4,9-dimethyl-1,2,3,4-tetrahydro-2,4a,5-triaza-fluorene]
Ki (human 5-HT2B receptors): 108 nM | EC50 (5-HT2C receptor [1]): 7.6 nM | h5-HT2C Rel. Eff. (5-HT2C receptor [1]): 93.3% | EC50 (5-HT2A receptor [2]): 11.1 nM | h5-HT2A Rel. Eff. (5-HT2A receptor [2]): 12.0% | Ki (5-HT2C receptor [3]): 5.1 nM | Ki (5-HT2A receptor [4]): 178 nM

CCc1ccc2c(n1)N1[C@@H](CNC[C@H]1C)C2 [Example 9, (4R,9aR)-6-Ethyl-4-methyl-1,2,3,4,9,9a-hexahydro-2,4a,5-triaza-fluorene]
Ki (human 5-HT2B receptors): 271 nM | EC50 (5-HT2C receptor [1]): 85.4 nM | h5-HT2C Rel. Eff. (5-HT2C receptor [1]): 91.4% | EC50 (5-HT2A receptor [2]): 644 nM | h5-HT2A Rel. Eff. (5-HT2A receptor [2]): 29.6% | Ki (5-HT2C receptor [3]): 16.5 nM | Ki (5-HT2A receptor [4]): 212 nM
